According to US7772260B2, “Imidazo[2,1-b]-1,3,4-thiadiazole sulfonamides” (Aegera Therapeutics Inc., priority 2001, dated 2010):
Entries after “also recorded” stand apart in the source; their conditions may differ.

Legend:
SCG neurons [1] = experiment: cells; type: cell-based, Sprague Dawley rats; details: for IC50: Rattus norvegicus, Neuron
SCG neurons [2] = experiment: In vitro protection of SCG neurons from vincristine killing; type: cell-based, Sprague Dawley rats; details: Rattus norvegicus, Neuron; vincristine (50 ng/mL), 48 hours, MTS; ±1 μM; read-out: IC50, protection of SCG neurons against Vincristine killing
From the text: Similarly, vincristine and vinblastine are commonly used anti-tumour agents whose mode of action involve tubulin binding.

[3] = test system: human lung carcinoma cells (H460); experiment: Co-treatment of H460 cell line with Taxol and compound 1; type: cell-based; details: Taxol™ (50 nM) + compound at 5, 10, 20 uM; Taxol™ and/or cisplatin
Description: (§1) H460 and OV2008 cells were plated and incubated for 48 hours. Compound 1 and/or compound 1 and Taxol™ were added. Viability was determined after 24 hours, staining with MTT (Promega).
(§2) FIG. 3 illustrates the co-treatment of H460 and OV 2008 cell lines with Taxol™ and compound 1. H460 lung carcinoma and OV2008 ovarian carcinoma cells were treated with Taxol™ (50 nM) and/or Taxol™ (50 nM)+compound 1 (noted as AEG 03482) at levels of 5, 10, and 20 uM.

[4] = test system: human ovarian carcinoma cells (OV2008); experiment: Co-treatment of OV2008 cell line with Taxol and compound 1; type: cell-based; details: Taxol™ (50 nM) + compound at 5, 10, 20 uM; Taxol™ and/or cisplatin
Description: as §1, §2

Sprague Dawley rats = type: in vivo
Description: Taxol™ commonly causes dose dependent peripheral neuropathies during cancer treatment. […] All of the Taxol™ treated animals developed peripheral neuropathies, characterized by ‘tip toe walking’. The extent of this neuropathy was analyzed by quantifying the refracted light captured by a video camera as the animals walked over a glass plate.
Adult Sprague Dawley rats were treated with Taxol™ (IP, 9 mg/kg in Cremophor EL and ethanol) twice weekly for 3 weeks (J. Neuro-Oncology (1999) 41: 107-116). Compound was administered I hour prior to Taxol™ treatment (IP, 1, 5 and 10 mg/kg in hydroxypropyl-β-cyclodextrin). Taxol™ treated control animals were treated with saline solution at the same time of Compound treated animals. Non-treated control animals were treated with saline solution as above. Weight gain was measured every second day, starting at Day 1. Gait analysis was measured by quantifying the refracted light captured by a video camera as the animals walked over a glass plate, 2 days after the final Taxol™ treatment (Physiology and Behavior (1994), 55(4): 723-726; Med. Sci. Res. (1988) 16: 901-902). […] H/M wave recovery was analyzed using standard procedures 2 days after the final Taxol™ treatment (Muscle Nerve (1998) 21: 1405-1413; Annals of Neurology (1998) 43 (1): 46-55).
Male Spraugue Dawley rats were treated with 50% HPDC vehicle (veh/veh), compound I dissolved in 50% HPDC at 1, 5, or 10 mg/kg (veh/1, veh/5, veh/10, respectively), or Taxol™ (9 mg/kg)+compound 1 dissolved in 50% HPDC at 1, 5, and 10 mg/kg (Tax/1, Tax/5, Tax/10) according to the dosing regime described in Example 160. Weight measurements were made ever other day.
Two days after the completion of drug treatments animal walking gait was analyzed according to a) total imprint area, and b) total number of contact points.
FIG. 6 illustrates the effect of Compound 1 on H-reflex amplitude, a measurement of H/M wave disturbance induced by Taxol™. Two days after the completion of drug treatments, the dorsal root ganglia and attached nerves were dissected bilaterally from L4 and L5 and their H/M wave conductance measured.

sciatic nerve = experiment: Sciatic nerve crush injury model; type: in vivo, Sprague Dawley rats
From the text: The sciatic nerve crush model is a representative model of axonal repair and regeneration. The sciatic nerve is physically crushed with forceps at the mid-thigh; only the right leg is injured, the left leg serving as a control. The axons die from the crush point to their point of innervation. Functional loss of the axons is rapidly observed as the animals drag their right leg and the toes of the right leg no longer spread. Recovery is observed in approximately 28 days as the animals regain use of their right leg. More quantitative measurements of recovery include toe spread measurements between the digits 1 and 5 and digits 2 and 4, gait analysis and electrical conductivity from the toes to the injury site (see Example 161). Male Sprague Dawley rats were anaesthetized (halothane and buprenorphine) and the right hind leg was blunt dissected to expose the sciatic nerve at mid-thigh. The nerve was crushed twice for a total of 30 seconds using No.7 Dumont jeweller's forceps. The incision is sutured and the animals are allowed to recover for 28 days. Functional recovery was measured by gait, nerve conductance and toe spread measurements between digits 1 and 5 and digits 2 and 4.

Erk = Erk activity in PC12 cells and sympathetic neurons; type: cell-based; details: PC12 cells and primary cultures of sympathetic neurons
From the text: (§3) Additionally, the Erks protect cultured neurons from a number of insults including neurotrophin withdrawal (Bonni, A., et al., Science, 1999, 286, 1358-1362). […] Compound 1, therefore, protects neurons by activating a subset of NGF-stimulated signaling pathways.

Akt = Akt activity in PC12 cells and SCGs; type: cell-based
From the text: as §3

SCG neurons [5] = experiment: cells; details: Rattus norvegicus, Neuron, 48 h, read-out: IC50, protection of SCG neurons against cisplatin killing
[6] = 5 mg/kg with Taxol™ (9 mg/kg), bi-weekly

With `NS(=O)(=O)c1nn2cc(-c3ccccc3)nc2s1` [Compound 1, 6-Phenylimidazo[2,1-b]-1,3,4-thiadiazole-2-sulfonamide] the “protection against Taxol™ induced killing” value (SCG neurons [1]; 10 uM, Taxol™ 50 ng/mL, MTS) was 100%, the IC50 (SCG neurons [1]; Taxol™ (50 ng/mL), viability 48 hours later, MTS, read-out: IC(50), protection of SCG neurons from Taxol killing) was 7 µM and the IC50 (SCG neurons [1]; read-out: IC(50) against Taxol killing of SCGs) was 7 µM. For the same molecule, the IC50 (SCG neurons [2]) was 10 µM, the “protection of H460 cells from Taxol™ induced apoptosis” value [3] was “no protection; also recorded: did not protect” and the “protection of OV2008 cells from Taxol™ induced apoptosis” value [4] was “no protection; also recorded: did not protect”. The “loss in foot pad contact” value (Sprague Dawley rats; [6]) was 23%, the “weight gain as compared to control” value (Sprague Dawley rats; [6]) was “normal weight gain” and the “H/M wave disturbance induced by Taxol™ (H-reflex amplitude)” value (Sprague Dawley rats; two days after completion of drug treatments) was “caused a reversal in H/M wave disturbance”. The “Taxol™ induced gait disturbance” value (Sprague Dawley rats; two days after completion of drug treatments, total imprint area, number of contact points) was “prevented Taxol™ induced gait disturbance”, the “functional recovery after sciatic nerve crush” value (sciatic nerve; 1 and 10 mg/kg) was “improved recovery” and the “recovery in toe spread area (inner toe spread)” value (sciatic nerve; versus vehicle control) was “induced increased recovery”. For the same molecule, the Erk activity (Erk) was “dramatic increase”, the “activity of Akt” value (Akt) was “remained unchanged” and the IC50 (SCG neurons [5]) was 5 µM.
